Experimental data reported in ChEMBL document CHEMBL1201862, “PubChem BioAssay data set” (2004).
Activity calls are given as the source filed them.

Legend:
Type in all cases: functional
[1] = molecular target: Glycogen synthase kinase-3 alpha (Homo sapiens, UniProt P49840); assay: human GSK3 alpha kinase inhibition, dose response, selectivity assay for GSK3beta inhibitor project, biochemical, microfluidics, dry powder samples, set 2 (AID 623978)
[2] = HEK293T cytotoxicity, dose response, cytotoxicity control for miR-122 modulator project, cell-based, inhibitor set, cherry-pick, set 2 (AID 720697)
[3] = molecular target: Glycogen synthase kinase-3 beta (Homo sapiens, UniProt P49841); assay: GSK3beta kinase inhibitors, dose response, biochemical, microfluidics, dry powder samples, set 2 (AID 623989)
[4] = A High Throughput Confirmatory Assay used to Identify Novel Compounds that Inhibit Mycobacterium Tuberculosis in the absence of Glycerol using Purified and Synthesized Compounds (3).
[5] = THP-1 cell cytotoxicity, cytotoxicity control, set 5 (AID 588443)
[6] = HepG2 cell cytotoxicity, cytotoxicity control, set 5 (AID 588441); conditions: Mycobacterium tuberculosis
[7] = Vero cell cytotoxicity, dose response, cytotoxicity control for M. tuberculosis inhibitor project, purified and synthesized compounds, set 6 (AID 588445); conditions: Mycobacterium tuberculosis
[8] = molecular target: Cell division cycle 7-related protein kinase (Homo sapiens, UniProt O00311);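 further: value obtained from a kinome-wide kinase panel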
Wee1-like protein kinase = Wee1-like protein kinase (Homo sapiens, UniProt P30291); assay: Navigating the Kinome. Panel member name: WEE1
[9] = molecular target: Cyclin-dependent kinase 19 (Homo sapiens, UniProt Q9BWU1); assay: Navigating the Kinome. Panel member name: CDC2L6
SRSF protein kinase 1 = SRSF protein kinase 1 (Homo sapiens, UniProt Q96SB4);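 further: measured as one member of a kinome-wide kinase profiling panel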
[10] = molecular target: Dual specificity protein kinase CLK4 (Homo sapiens, UniProt Q9HAZ1)
[11] = molecular target: MAP kinase-activated protein kinase 5 (Homo sapiens, UniProt Q8IW41);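 further: measured as one member of a kinome panel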
[12] = molecular target: Protein-tyrosine kinase 2-beta (Homo sapiens, UniProt Q14289)
[13] = molecular target: Serine/threonine-protein kinase pim-1 (Homo sapiens, UniProt P11309)
[14] = molecular target: Tyrosine-protein kinase receptor UFO (Homo sapiens, UniProt P30530)
Aurora kinase B = Aurora kinase B (Homo sapiens, UniProt Q96GD4)
[15] = molecular target: Vascular endothelial growth factor receptor 2 (Homo sapiens, UniProt P35968)
Aurora kinase A = Aurora kinase A (Homo sapiens, UniProt O14965);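 further: value from the Navigating the Kinome kinase panel profiling, panel entry STK6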
[16] = molecular target: DNA dC->dU-editing enzyme APOBEC-3G (Homo sapiens, UniProt Q9HC16); assay: SAR analysis of small molecule inhibitors of APOBEC3G DNA Deaminase via a fluorescence-based single-stranded DNA deaminase assay - Set 2.; conditions: read-out: IC50_Mean
[17] = molecular target: DNA dC->dU-editing enzyme APOBEC-3A (Homo sapiens, UniProt P31941); assay: SAR analysis of small molecule inhibitors of APOBEC3A DNA Deaminase via a fluorescence-based single-stranded DNA deaminase assay - Set 2.; conditions: read-out: IC50_Mean
[18] = molecular target: Sphingosine 1-phosphate receptor 2 (Homo sapiens, UniProt O95136); assay: Late-stage fluorescence-based dose-response cell-based counterscreen assay to identify agonists of the Sphingosine 1-Phosphate Receptor 3 (S1P3): Sphingosine 1-Phosphate Receptor 2 (S1P2) agonist assay.
[19] = molecular target: T1, Sphingosine 1-phosphate receptor 4 (Homo sapiens, UniProt O95977); assay: Late-stage fluorescence-based dose-response cell-based counterscreen assay to identify agonists of the Sphingosine 1-Phosphate Receptor 3 (S1P3): Sphingosine 1-Phosphate Receptor 4 (S1P4) agonist assay.
T1 sequence (O95977 whole entry): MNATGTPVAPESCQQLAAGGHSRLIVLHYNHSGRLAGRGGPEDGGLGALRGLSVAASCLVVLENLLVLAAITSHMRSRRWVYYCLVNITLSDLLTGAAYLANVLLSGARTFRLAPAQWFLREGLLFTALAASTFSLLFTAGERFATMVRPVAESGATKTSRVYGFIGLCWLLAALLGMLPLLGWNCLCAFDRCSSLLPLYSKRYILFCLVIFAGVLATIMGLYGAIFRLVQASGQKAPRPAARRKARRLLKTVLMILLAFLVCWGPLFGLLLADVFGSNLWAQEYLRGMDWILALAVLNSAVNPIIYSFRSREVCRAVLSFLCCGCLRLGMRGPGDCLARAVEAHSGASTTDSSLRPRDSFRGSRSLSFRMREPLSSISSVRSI

[20] = molecular target: Serine/threonine-protein kinase pim-3 (Homo sapiens, UniProt Q86V86);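 further: value obtained as one member of a broad kinase panel profiling effort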
[21] = molecular target: T2, Neuropeptides B/W receptor type 1 (Homo sapiens, UniProt P48145); assay: GPR7 antagonist potency, late-stage follow-up, cell-based, fluorescence, dose response, set 6 (AID 588583)
T2 sequence (P48145 whole entry): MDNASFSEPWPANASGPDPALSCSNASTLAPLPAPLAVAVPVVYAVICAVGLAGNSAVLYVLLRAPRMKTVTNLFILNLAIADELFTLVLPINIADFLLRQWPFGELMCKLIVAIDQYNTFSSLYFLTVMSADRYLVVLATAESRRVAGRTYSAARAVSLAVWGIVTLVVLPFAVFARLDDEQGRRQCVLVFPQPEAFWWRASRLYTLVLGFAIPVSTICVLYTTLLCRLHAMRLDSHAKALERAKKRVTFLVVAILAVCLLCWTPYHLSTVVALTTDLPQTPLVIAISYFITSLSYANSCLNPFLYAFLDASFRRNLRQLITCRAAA

[22] = molecular target: Melanin-concentrating hormone receptor 1 (Homo sapiens, UniProt Q99705); assay: Late-stage fluorescence-based counterscreen for antagonists of the G-protein coupled receptor 7 (GPR7): cell-based dose response assay to identify antagonists of the melanin-concentrating hormone receptor 1 (MCHR1) Set 6.
[23] = molecular target: G protein-coupled receptor kinase 5 (Homo sapiens, UniProt P34947); assay: Navigating the Kinome. Panel member name: GPRK5
[24] = molecular target: Leucine-rich repeat serine/threonine-protein kinase 2 (Homo sapiens, UniProt Q5S007);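 further: value from a broad kinome-wide panel profiling study in which LRRK2 was one of the kinases tested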
[25] = molecular target: MAP/microtubule affinity-regulating kinase 3 (Homo sapiens, UniProt P27448);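 further: MARK3 affinity measured as one member of a kinome panel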
[26] = molecular target: Mitogen-activated protein kinase 10 (Homo sapiens, UniProt P53779); assay: Navigating the Kinome. Panel member name: MAPK10
[27] = molecular target: Cyclin-dependent kinase 8 (Homo sapiens, UniProt P49336); assay: Navigating the Kinome. Panel member name: CDK8
[28] = molecular target: Dual specificity tyrosine-phosphorylation-regulated kinase 1A (Homo sapiens, UniProt Q13627);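 further: measured against DYRK1A as one member of a broad kinome profiling panel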
[29] = molecular target: Casein kinase I isoform alpha (Homo sapiens, UniProt P48729)
[30] = molecular target: Tyrosine-protein kinase receptor TYRO3 (Homo sapiens, UniProt Q06418);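 further: TYRO3 value obtained as one member of a kinome-wide profiling panel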
[31] = molecular target: Proto-oncogene tyrosine-protein kinase receptor Ret (Homo sapiens, UniProt P07949);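 further: measured within a kinome-wide profiling panel, RET as the panel member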
[32] = molecular target: Rho-associated protein kinase 1 (Homo sapiens, UniProt Q13464);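 further: measured within a broad kinome-wide panel profiling many kinases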
[33] = molecular target: cAMP-dependent protein kinase catalytic subunit PRKX (Homo sapiens, UniProt P51817)
[34] = molecular target: Vascular endothelial growth factor receptor 1 (Homo sapiens, UniProt P17948);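 further: measured within a kinome-wide profiling panel, FLT1 as the panel member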
[35] = molecular target: 5'-AMP-activated protein kinase catalytic subunit alpha-1 (Homo sapiens, UniProt Q13131)
[36] = molecular target: Ribosomal protein S6 kinase alpha-3 (Homo sapiens, UniProt P51812);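 further: measured within a kinome-wide profiling panel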
[37] = molecular target: Tyrosine-protein kinase JAK2 (Homo sapiens, UniProt O60674);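 further: JAK2 tested as one member of a kinase panel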
[38] = molecular target: ALK tyrosine kinase receptor (Homo sapiens, UniProt Q9UM73);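 further: ALK tested as one member of a kinase panel screen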
Activated CDC42 kinase 1 = Activated CDC42 kinase 1 (Homo sapiens, UniProt Q07912); assay: Navigating the Kinome. Panel member name: ACK1
[39] = molecular target: Fibroblast growth factor receptor 1 (Homo sapiens, UniProt P11362)
[40] = molecular target: Serine/threonine-protein kinase TAO1 (Homo sapiens, UniProt Q7L7X3)
[41] = molecular target: Mitogen-activated protein kinase kinase kinase kinase 4 (Homo sapiens, UniProt O95819)
[42] = molecular target: Dual specificity mitogen-activated protein kinase kinase 1 (Homo sapiens, UniProt Q02750); assay: Navigating the Kinome. Panel member name: MAP2K1
[43] = molecular target: Leukocyte tyrosine kinase receptor (Homo sapiens, UniProt P29376); assay: Navigating the Kinome. Panel member name: LTK
[44] = molecular target: Dual specificity tyrosine-phosphorylation-regulated kinase 1B (Homo sapiens, UniProt Q9Y463); assay: Navigating the Kinome. Panel member name: DYRK1B
[45] = molecular target: Dual specificity protein kinase CLK2 (Homo sapiens, UniProt P49760)
[46] = molecular target: Mast/stem cell growth factor receptor Kit (Homo sapiens, UniProt P10721);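 further: KIT entry within a kinase panel assay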
Activin receptor type-1 = Activin receptor type-1 (Homo sapiens, UniProt Q04771); assay: Navigating the Kinome. Panel member name: ACVR1
[47] = molecular target: Macrophage-stimulating protein receptor (Homo sapiens, UniProt Q04912); assay: Navigating the Kinome. Panel member name: MST1R
[48] = molecular target: Inhibitor of nuclear factor kappa-B kinase subunit epsilon (Homo sapiens, UniProt Q14164); assay: Navigating the Kinome. Panel member name: IKBKE
[49] = molecular target: Tyrosine-protein kinase JAK3 (Homo sapiens, UniProt P52333)

Chain of Serine/threonine-protein kinase pim-1 (P11309 whole entry): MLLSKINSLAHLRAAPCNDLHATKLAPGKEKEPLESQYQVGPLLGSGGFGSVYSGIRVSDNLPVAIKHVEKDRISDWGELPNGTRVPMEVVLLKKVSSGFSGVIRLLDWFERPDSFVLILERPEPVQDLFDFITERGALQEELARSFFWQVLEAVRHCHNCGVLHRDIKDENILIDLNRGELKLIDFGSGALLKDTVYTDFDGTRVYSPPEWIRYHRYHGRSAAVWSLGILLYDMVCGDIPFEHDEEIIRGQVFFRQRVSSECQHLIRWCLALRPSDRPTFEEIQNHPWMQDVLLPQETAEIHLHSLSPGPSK
Chain of Dual specificity protein kinase CLK4 (Q9HAZ1 whole entry): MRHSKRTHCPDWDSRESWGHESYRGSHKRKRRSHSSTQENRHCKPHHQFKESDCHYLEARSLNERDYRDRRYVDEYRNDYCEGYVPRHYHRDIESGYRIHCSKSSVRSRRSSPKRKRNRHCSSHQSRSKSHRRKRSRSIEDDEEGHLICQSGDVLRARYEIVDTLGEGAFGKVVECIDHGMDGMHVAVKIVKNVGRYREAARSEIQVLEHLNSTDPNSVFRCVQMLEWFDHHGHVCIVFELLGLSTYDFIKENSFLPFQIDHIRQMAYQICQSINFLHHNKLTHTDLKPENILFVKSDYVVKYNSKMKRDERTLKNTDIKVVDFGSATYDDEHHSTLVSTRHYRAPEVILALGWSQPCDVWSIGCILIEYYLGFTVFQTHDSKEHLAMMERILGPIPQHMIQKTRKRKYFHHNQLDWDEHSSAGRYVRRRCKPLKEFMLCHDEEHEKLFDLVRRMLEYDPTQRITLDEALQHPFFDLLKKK
Chain of Aurora kinase B (Q96GD4 whole entry): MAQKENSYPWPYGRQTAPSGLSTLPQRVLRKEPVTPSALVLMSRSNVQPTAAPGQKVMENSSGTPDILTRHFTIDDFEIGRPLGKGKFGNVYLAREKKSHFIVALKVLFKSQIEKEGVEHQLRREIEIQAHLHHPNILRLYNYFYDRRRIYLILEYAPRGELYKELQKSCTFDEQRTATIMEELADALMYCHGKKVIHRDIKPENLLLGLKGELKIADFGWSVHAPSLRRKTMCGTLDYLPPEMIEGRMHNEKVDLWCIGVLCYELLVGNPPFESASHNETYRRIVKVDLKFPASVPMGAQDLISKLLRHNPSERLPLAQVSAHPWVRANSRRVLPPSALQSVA
Chain of Cell division cycle 7-related protein kinase (O00311 whole entry): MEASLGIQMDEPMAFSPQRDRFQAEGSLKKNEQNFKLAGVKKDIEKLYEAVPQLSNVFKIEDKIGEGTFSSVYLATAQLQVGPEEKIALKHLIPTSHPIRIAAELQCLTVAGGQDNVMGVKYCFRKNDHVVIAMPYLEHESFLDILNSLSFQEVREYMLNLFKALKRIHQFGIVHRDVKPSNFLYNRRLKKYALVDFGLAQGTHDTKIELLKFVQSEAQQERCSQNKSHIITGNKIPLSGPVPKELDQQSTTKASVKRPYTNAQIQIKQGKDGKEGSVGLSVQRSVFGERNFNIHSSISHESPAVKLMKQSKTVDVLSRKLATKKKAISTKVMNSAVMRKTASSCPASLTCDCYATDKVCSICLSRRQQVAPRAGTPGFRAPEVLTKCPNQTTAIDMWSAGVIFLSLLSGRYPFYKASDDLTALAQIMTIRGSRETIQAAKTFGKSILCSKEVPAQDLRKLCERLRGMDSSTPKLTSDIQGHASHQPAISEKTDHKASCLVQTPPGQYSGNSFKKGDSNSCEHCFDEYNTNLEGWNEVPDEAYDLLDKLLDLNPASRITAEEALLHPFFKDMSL
Chain of Vascular endothelial growth factor receptor 2 (P35968 whole entry): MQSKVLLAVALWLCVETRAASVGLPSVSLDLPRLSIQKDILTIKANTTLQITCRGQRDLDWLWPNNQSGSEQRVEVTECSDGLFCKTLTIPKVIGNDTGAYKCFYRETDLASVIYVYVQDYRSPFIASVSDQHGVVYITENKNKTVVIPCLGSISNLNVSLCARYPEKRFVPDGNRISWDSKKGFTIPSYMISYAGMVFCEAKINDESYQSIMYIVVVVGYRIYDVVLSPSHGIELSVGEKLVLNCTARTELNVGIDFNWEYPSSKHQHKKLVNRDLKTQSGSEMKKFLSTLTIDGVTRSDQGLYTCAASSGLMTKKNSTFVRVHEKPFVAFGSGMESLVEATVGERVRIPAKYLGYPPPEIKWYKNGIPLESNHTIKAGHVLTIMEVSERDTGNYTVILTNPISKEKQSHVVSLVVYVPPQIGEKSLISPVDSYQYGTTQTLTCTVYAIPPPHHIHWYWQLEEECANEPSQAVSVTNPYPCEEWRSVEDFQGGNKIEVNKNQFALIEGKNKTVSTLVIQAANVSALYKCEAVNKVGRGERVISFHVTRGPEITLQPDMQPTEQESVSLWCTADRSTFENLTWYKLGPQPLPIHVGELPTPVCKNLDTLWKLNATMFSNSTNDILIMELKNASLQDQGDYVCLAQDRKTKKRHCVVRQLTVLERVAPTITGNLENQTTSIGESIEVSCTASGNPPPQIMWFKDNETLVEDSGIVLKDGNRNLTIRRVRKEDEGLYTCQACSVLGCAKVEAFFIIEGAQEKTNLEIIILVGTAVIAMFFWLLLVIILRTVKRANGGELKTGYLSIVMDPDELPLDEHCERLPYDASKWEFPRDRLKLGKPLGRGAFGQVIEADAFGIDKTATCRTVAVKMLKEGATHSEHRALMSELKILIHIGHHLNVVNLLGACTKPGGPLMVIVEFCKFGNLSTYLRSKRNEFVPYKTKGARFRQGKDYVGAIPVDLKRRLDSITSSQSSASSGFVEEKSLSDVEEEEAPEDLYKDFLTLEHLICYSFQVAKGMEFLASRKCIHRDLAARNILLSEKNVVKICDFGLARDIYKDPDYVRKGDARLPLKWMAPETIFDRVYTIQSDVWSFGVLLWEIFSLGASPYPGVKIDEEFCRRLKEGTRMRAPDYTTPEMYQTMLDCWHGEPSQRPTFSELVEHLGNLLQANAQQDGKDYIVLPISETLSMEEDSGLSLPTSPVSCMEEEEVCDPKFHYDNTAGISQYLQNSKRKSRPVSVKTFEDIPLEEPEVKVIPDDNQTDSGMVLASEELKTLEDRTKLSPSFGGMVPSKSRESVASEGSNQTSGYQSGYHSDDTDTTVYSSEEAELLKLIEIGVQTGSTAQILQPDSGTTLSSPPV
Chain of Glycogen synthase kinase-3 beta (P49841 whole entry): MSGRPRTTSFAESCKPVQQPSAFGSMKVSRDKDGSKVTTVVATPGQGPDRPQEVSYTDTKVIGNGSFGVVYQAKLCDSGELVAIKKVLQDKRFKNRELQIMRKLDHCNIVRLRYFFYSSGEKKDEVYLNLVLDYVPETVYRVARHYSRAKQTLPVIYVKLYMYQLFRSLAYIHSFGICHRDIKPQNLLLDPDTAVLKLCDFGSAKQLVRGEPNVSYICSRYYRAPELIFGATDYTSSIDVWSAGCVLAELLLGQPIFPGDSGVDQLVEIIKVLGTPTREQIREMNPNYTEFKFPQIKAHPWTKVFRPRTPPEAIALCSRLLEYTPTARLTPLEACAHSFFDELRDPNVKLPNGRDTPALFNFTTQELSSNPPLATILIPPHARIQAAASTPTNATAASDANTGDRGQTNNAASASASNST
Chain of Ribosomal protein S6 kinase alpha-3 (P51812 whole entry): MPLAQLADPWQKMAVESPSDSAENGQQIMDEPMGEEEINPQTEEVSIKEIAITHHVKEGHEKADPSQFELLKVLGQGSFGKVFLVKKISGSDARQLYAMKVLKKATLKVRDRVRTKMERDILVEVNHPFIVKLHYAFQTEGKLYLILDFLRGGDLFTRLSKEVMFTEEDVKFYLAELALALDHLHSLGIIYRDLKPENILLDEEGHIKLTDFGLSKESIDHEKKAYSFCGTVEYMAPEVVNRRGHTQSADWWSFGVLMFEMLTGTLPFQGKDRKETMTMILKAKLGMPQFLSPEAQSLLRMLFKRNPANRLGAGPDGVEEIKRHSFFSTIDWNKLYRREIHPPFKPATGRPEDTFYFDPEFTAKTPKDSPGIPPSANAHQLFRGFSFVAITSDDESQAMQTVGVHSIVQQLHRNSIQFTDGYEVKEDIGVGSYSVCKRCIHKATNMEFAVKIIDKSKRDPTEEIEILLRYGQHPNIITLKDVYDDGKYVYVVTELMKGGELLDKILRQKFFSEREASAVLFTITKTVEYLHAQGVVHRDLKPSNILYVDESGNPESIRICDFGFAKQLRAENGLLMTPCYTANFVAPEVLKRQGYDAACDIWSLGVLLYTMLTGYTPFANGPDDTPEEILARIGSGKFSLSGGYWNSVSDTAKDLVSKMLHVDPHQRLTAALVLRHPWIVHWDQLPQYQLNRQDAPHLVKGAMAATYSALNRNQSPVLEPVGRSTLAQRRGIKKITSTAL
Chain of Mitogen-activated protein kinase 10 (P53779 whole entry): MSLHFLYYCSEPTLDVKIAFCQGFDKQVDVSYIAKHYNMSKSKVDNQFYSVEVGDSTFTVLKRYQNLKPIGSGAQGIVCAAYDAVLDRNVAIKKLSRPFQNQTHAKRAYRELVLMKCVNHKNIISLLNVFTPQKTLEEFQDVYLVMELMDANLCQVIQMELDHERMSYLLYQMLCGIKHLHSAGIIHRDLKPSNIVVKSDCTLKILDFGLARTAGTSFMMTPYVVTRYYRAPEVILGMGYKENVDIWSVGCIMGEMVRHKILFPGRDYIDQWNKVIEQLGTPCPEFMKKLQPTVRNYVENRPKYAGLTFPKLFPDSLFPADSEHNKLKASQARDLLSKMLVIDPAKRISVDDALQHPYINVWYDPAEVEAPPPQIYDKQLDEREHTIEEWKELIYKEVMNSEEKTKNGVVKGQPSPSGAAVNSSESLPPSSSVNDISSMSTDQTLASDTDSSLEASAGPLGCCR

With `Clc1ccc(CSc2nnc(-c3ccncc3)o2)c(Cl)c1` the AC50 [1] was 24 µM (active), the AC50 [2] was 8.31 µM (active) and the AC50 [3] was 1.83 µM (active).

For `Cc1cccc(N2CCN(C(=O)c3ccc(CNc4c(N5CCC(C)CC5)c(=O)c4=O)cc3)CC2)c1C`, the IC50 [4] was > 25 µM (active), the CC50 [5] was 8.21 µM (active) and the CC50 [6] was > 15 µM (active). The CC50 [7] was > 30 µM (active).

In the case of `c1cc(NC2CCCCC2)nc(Nc2ccc3[nH]ncc3c2)n1`, the Ki [8] is reported as 200 nM (active) and the Ki (Wee1-like protein kinase) is reported as > 3.16 µM (inactive).

For `Oc1cncc2nc(-c3ccncc3)ccc12`, the Ki [8] was 501 nM (active) and the Ki [9] was > 100 µM (inactive).

With `O=C1CC(c2ccc(Cl)cc2)Cc2[nH]c3cc(Cl)ccc3c(=O)c21` (stereo unspecified) the Ki (SRSF protein kinase 1) was 6.31 µM (active), the Ki [10] was 6.31 µM (active) and the Ki [11] was 1.26 µM (active). The Ki [12] was 1.58 µM (active), the Ki [13] was 5.01 µM (active) and the Ki [14] was 1.58 µM (active).

With `O=C(CCCCCCC(=NO)c1ncco1)Nc1cccc(-c2ccccc2)c1` the Ki (Aurora kinase B) was 25.1 nM (active), the Ki [15] was > 5.01 µM (inactive) and the Ki (Aurora kinase A) was > 2 µM (inactive).

For `CCCn1c(=O)c2ccccc2n2c(SC)nnc12`, the IC50 [16] was > 99 µM (inactive) and the IC50 [17] was > 99 µM (inactive).

In the case of `CC(C)Cc1cc(C(=O)N(C2CCCCC2)C2CCCCC2)no1`, the EC50 [18] is reported as > 50 µM (inactive) and the EC50 [19] is reported as > 50 µM (inactive).

With `N=C(N)Cc1cccc(-c2nc3ccccc3[nH]2)c1` the Ki [20] was 3.98 µM (active), the Ki (Aurora kinase B) was 2510 nM (active) and the Ki [13] was 5.01 µM (active).

In the case of `N#CC(c1ccc2c(c1)OCO2)c1c(Cl)cnn(Cc2cccc3ccccc23)c1=O` (stereo unspecified), the IC50 [21] is reported as 410 nM (active) and the IC50 [22] is reported as 410 nM (active).

With `O=C(Nc1cccc(C(F)(F)F)n1)Nc1ccnc2ccc(F)cc12` the Ki [23] was > 3.98 µM (inactive), the Ki [24] was > 2.51 µM (inactive) and the Ki [25] was > 5.01 µM (inactive). For the same compound, the Ki [26] was > 3.16 µM (inactive), the Ki [27] was 79.4 nM (active) and the Ki [28] was > 2 µM (inactive). For the same compound, the Ki [29] was > 3.98 µM (inactive), the Ki [30] was > 3.16 µM (inactive) and the Ki [31] was > 3.16 µM (inactive). The Ki [32] was > 3.98 µM (inactive), the Ki [10] was 0.1 µM (active) and the Ki [33] was > 3.16 µM (inactive). For the same compound, the Ki [34] was > 3.98 µM (inactive), the Ki [35] was > 3.16 µM (inactive) and the Ki [36] was > 3.98 µM (inactive). For the same compound, the Ki [37] was > 2.51 µM (inactive), the Ki [38] was > 6.31 µM (inactive) and the Ki (Activated CDC42 kinase 1) was > 3.98 µM (inactive). The Ki [39] was > 3.98 µM (inactive), the Ki [40] was > 2.51 µM (inactive) and the Ki [41] was > 5.01 µM (inactive). For the same compound, the Ki [42] was > 3.16 µM (inactive), the Ki [43] was > 3.16 µM (inactive) and the Ki [44] was 2 µM (active). For the same compound, the Ki [13] was > 6.31 µM (inactive), the Ki [15] was > 2.51 µM (inactive) and the Ki [45] was 3.16 µM (active). For the same compound, the Ki [46] was > 6.31 µM (inactive), the Ki (Activin receptor type-1) was 1.58 µM (active) and the Ki [47] was > 3.98 µM (inactive). The Ki [48] was > 3.16 µM (inactive) and the Ki [49] was > 5.01 µM (inactive).
